According to PubChem BioAssay (NCI):
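The compound was tested at five concentrations on cells cultured in 96-well plates, with a 48-hour exposure period. GI50: concentration for 50% inhibition of growth. Definition used: TGI = concentration required for complete inhibition of growth.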

Legend:
Assay in all cases: inhibition of tumour cell growth, NCI panel, 48 h
786-0 renal = test system: 786-0 renal
A498 renal = test system: A498 renal
A549 NSCLC = test system: A549 NSCLC
ACHN renal = test system: ACHN renal
BT-549 breast = test system: BT-549 breast
CAKI-1 renal = test system: CAKI-1 renal
CCRF-CEM leukemia = test system: CCRF-CEM leukemia
COLO 205 colon = test system: COLO 205 colon
DU-145 prostate = test system: DU-145 prostate
EKVX NSCLC = test system: EKVX NSCLC
HCC-2998 colon = test system: HCC-2998 colon
HCT-116 colon = test system: HCT-116 colon
HCT-15 colon = test system: HCT-15 colon
HOP-62 NSCLC = test system: HOP-62 NSCLC
HOP-92 NSCLC = test system: HOP-92 NSCLC
HS 578T breast = test system: HS 578T breast
HT29 colon = test system: HT29 colon
IGROV1 ovarian = test system: IGROV1 ovarian
K-562 leukemia = test system: K-562 leukemia
KM12 colon = test system: KM12 colon
LOX IMVI melanoma = test system: LOX IMVI melanoma
M14 melanoma = test system: M14 melanoma
MCF7 breast = test system: MCF7 breast
MDA-MB-231 breast = test system: MDA-MB-231 breast
MDA-MB-435 = test system: MDA-MB-435
MOLT-4 leukemia = test system: MOLT-4 leukemia
NCI-H226 lung = test system: NCI-H226 lung
NCI-H23 lung = test system: NCI-H23 lung
NCI-H460 lung = test system: NCI-H460 lung
NCI-H522 lung = test system: NCI-H522 lung
NCI/ADR-RES ovarian = test system: NCI/ADR-RES ovarian
OVCAR-3 ovarian = test system: OVCAR-3 ovarian
OVCAR-4 ovarian = test system: OVCAR-4 ovarian
OVCAR-5 ovarian = test system: OVCAR-5 ovarian
OVCAR-8 ovarian = test system: OVCAR-8 ovarian
PC-3 prostate = test system: PC-3 prostate
RPMI-8226 leukemia = test system: RPMI-8226 leukemia
RXF 393 renal = test system: RXF 393 renal
SF-268 CNS = test system: SF-268 CNS
SF-295 CNS = test system: SF-295 CNS
SF-539 CNS = test system: SF-539 CNS
SK-MEL-2 melanoma = test system: SK-MEL-2 melanoma
SK-MEL-28 melanoma = test system: SK-MEL-28 melanoma
SK-MEL-5 melanoma = test system: SK-MEL-5 melanoma
SK-OV-3 ovarian = test system: SK-OV-3 ovarian
SN12C renal = test system: SN12C renal
SNB-19 CNS = test system: SNB-19 CNS
SNB-75 CNS = test system: SNB-75 CNS
SW-620 colon = test system: SW-620 colon
T-47D breast = test system: T-47D breast
TK-10 renal = test system: TK-10 renal
U251 CNS = test system: U251 CNS
UACC-257 melanoma = test system: UACC-257 melanoma
UACC-62 melanoma = test system: UACC-62 melanoma
UO-31 renal = test system: UO-31 renal

**Q.** Which results are given for `CC(=O)O[C@H]1[C@@H]2OC(=O)C3(CC3)C2C[C@H]2O[C@]2(C)CC/C=C(\C)CCC[C@@H]1C` (stereo not given in full)?
**A.** GI50 (786-0 renal): 25.8 µM; TGI (786-0 renal): 92 µM; GI50 (A498 renal): 27.4 µM; TGI (A498 renal): > 100 µM; GI50 (A549 NSCLC): 20.3 µM; TGI (A549 NSCLC): 46 µM; GI50 (ACHN renal): 21 µM; TGI (ACHN renal): 44.2 µM; GI50 (BT-549 breast): 18.7 µM; TGI (BT-549 breast): 46.2 µM; GI50 (CAKI-1 renal): 19.8 µM; TGI (CAKI-1 renal): 42.1 µM; GI50 (CCRF-CEM leukemia): 17.2 µM; TGI (CCRF-CEM leukemia): 37.8 µM; GI50 (COLO 205 colon): 34 µM; TGI (COLO 205 colon): > 100 µM; GI50 (DU-145 prostate): 19.6 µM; TGI (DU-145 prostate): 39.1 µM; GI50 (EKVX NSCLC): 30.1 µM; TGI (EKVX NSCLC): > 100 µM; GI50 (HCC-2998 colon): 19.8 µM; TGI (HCC-2998 colon): 50.9 µM; GI50 (HCT-116 colon): 15.7 µM; TGI (HCT-116 colon): 37.3 µM; GI50 (HCT-15 colon): 26.8 µM; TGI (HCT-15 colon): 70 µM; GI50 (HOP-62 NSCLC): 37.7 µM; TGI (HOP-62 NSCLC): > 100 µM; GI50 (HOP-92 NSCLC): 4.58 µM; TGI (HOP-92 NSCLC): 63 µM; GI50 (HS 578T breast): 19 µM; TGI (HS 578T breast): 50.2 µM; GI50 (HT29 colon): 36.8 µM; TGI (HT29 colon): > 100 µM; GI50 (IGROV1 ovarian): 16.4 µM; TGI (IGROV1 ovarian): 45.2 µM; GI50 (K-562 leukemia): 14.3 µM; TGI (K-562 leukemia): 37.7 µM; GI50 (KM12 colon): 18.4 µM; TGI (KM12 colon): 36.5 µM; GI50 (LOX IMVI melanoma): 15.8 µM; TGI (LOX IMVI melanoma): 46.2 µM; GI50 (M14 melanoma): 19.1 µM; TGI (M14 melanoma): 43.6 µM; GI50 (MCF7 breast): 37.1 µM; TGI (MCF7 breast): > 100 µM; GI50 (MDA-MB-231 breast): 20.5 µM; TGI (MDA-MB-231 breast): 48.7 µM; GI50 (MDA-MB-435): 24.2 µM; TGI (MDA-MB-435): 54.3 µM; GI50 (MOLT-4 leukemia): 18.1 µM; TGI (MOLT-4 leukemia): 41.3 µM; GI50 (NCI-H226 lung): 24.1 µM; TGI (NCI-H226 lung): 66.5 µM; GI50 (NCI-H23 lung): 22.1 µM; TGI (NCI-H23 lung): > 100 µM; GI50 (NCI-H460 lung): 24.6 µM; TGI (NCI-H460 lung): 58.2 µM; GI50 (NCI-H522 lung): 21.1 µM; TGI (NCI-H522 lung): 48.4 µM; GI50 (NCI/ADR-RES ovarian): 23.3 µM; TGI (NCI/ADR-RES ovarian): 67.5 µM; GI50 (OVCAR-3 ovarian): 17.5 µM; TGI (OVCAR-3 ovarian): 32.9 µM; GI50 (OVCAR-4 ovarian): 38 µM; TGI (OVCAR-4 ovarian): > 100 µM; GI50 (OVCAR-5 ovarian): 76.5 µM; TGI (OVCAR-5 ovarian): > 100 µM; GI50 (OVCAR-8 ovarian): 27.8 µM; TGI (OVCAR-8 ovarian): > 100 µM; GI50 (PC-3 prostate): 19 µM; TGI (PC-3 prostate): 49.6 µM; GI50 (RPMI-8226 leukemia): 23.8 µM; TGI (RPMI-8226 leukemia): 55.2 µM; GI50 (RXF 393 renal): 14.8 µM; TGI (RXF 393 renal): 37.7 µM; GI50 (SF-268 CNS): 27.7 µM; TGI (SF-268 CNS): > 100 µM; GI50 (SF-295 CNS): 40.2 µM; TGI (SF-295 CNS): > 100 µM; GI50 (SF-539 CNS): 23.3 µM; TGI (SF-539 CNS): 50.8 µM; GI50 (SK-MEL-2 melanoma): 19.5 µM; TGI (SK-MEL-2 melanoma): 49.5 µM; GI50 (SK-MEL-28 melanoma): 36.7 µM; TGI (SK-MEL-28 melanoma): > 100 µM; GI50 (SK-MEL-5 melanoma): 14.8 µM; TGI (SK-MEL-5 melanoma): 29 µM; GI50 (SK-OV-3 ovarian): 80.5 µM; TGI (SK-OV-3 ovarian): > 100 µM; GI50 (SN12C renal): 22.7 µM; TGI (SN12C renal): 49.7 µM; GI50 (SNB-19 CNS): 62.4 µM; TGI (SNB-19 CNS): > 100 µM; GI50 (SNB-75 CNS): 38.1 µM; TGI (SNB-75 CNS): > 100 µM; GI50 (SW-620 colon): 23.7 µM; TGI (SW-620 colon): 55.9 µM; GI50 (T-47D breast): 43.7 µM; TGI (T-47D breast): > 100 µM; GI50 (TK-10 renal): 23.9 µM; TGI (TK-10 renal): 46.9 µM; GI50 (U251 CNS): 22.6 µM; TGI (U251 CNS): 49.9 µM; GI50 (UACC-257 melanoma): 43.4 µM; TGI (UACC-257 melanoma): > 100 µM; GI50 (UACC-62 melanoma): 17.1 µM; TGI (UACC-62 melanoma): 46.1 µM; GI50 (UO-31 renal): 25.5 µM; TGI (UO-31 renal): 64.2 µM
